# Key:
# [1] = target: His-tagged PARP1 recombinant protein (UniProt P09874)
# [2] = test system: SUM149-derived talazoparib-resistant (BR) cells; experiment: MTT assay, cell survival; type: cell-based; details: for cross-resistance of BR cells to PARPi: talazoparib-resistant BR cells, MTT assay
# Experimental: (§1) Cells were seeded at a concentration of 1,000 cells/well in a 96-well plate and cultured overnight before treatments with inhibitors. Inhibitor-containing media was refreshed every 3 days for a 6-day treatment schedule. Cells were incubated with 0.5 mg/ml thiazolyl blue tetrazolium bromide (Sigma-Aldrich) for 2 hours, and formazan crystals were dissolved using DMSO. Optical density at 565 nm was measured and survival percentages were calculated by normalizing the optical density value of each treatment group to that of the control group, treated with DMSO only. Half-maximal inhibitory concentrations of inhibitors were calculated using the standard curve interpolate function in GraphPad Prism 8.
# For Western blot signal quantification, signal intensities were analyzed using Image Studio Lite (version 5.2; LI-COR Biosciences). Signals of PARP1, PARylation, FGFR3, and phosphorylated FGFR were first normalized to house-keeping proteins (tubulin, actin, or GAPDH) of each sample before being normalized to the control groups. Every independent experiment repeat was quantified individually. Fold changes in Western blot signals were analyzed by a nonparametric Friedman test using the GraphPad Prism 8.0 software. A p value of less than 0.05 was considered statistically significant: *p <0.05; **p <0.002; ***p <0.001. Combination index experiments were designed according to the Chou-Talalay method^39, and results were calculated using Compusyn software.
# BR# 17 cells [3] = experiment: BR# 17 orthotopic xenograft mouse model; type: in vivo, mice; details: BR# 17 model; oral gavage daily; olaparib 40, AZD4547 8, talazoparib 0.25, PD173074 15 mg/kg per day
# Experimental: (§2) Animal studies were performed following a protocol approved by The University of Texas MD Anderson Cancer Center Institutional Animal Care and Use Committee. Female nude mice were purchased from the Department of Experimental Radiation Oncology at MD Anderson. For BR# 09 and BR# 17 xenograft mouse models, two million cells were mixed with 50% (v/v) growth factor reduced Matrigel matrix (Corning) and inoculated into the mammary fat pads of 6- to 8-week-old female nude mice. For the 4T1 model, female Balb/c mice were purchased from Jackson Laboratory. A total of 50,000 4T1 cells were mixed with Matrigel matrix and inoculated into the mammary fat pad of 6-week-old female Balb/c mice. Inhibitors were dissolved in vehicle solvent containing 10% dimethylacetamide (Sigma-Aldrich), 5% Kolliphor HS 15 (Sigma-Aldrich), and 85% phosphate-buffered saline (Evans et al., 2017). […] Treatment with inhibitors started when tumor volumes reached a mean of 120 mm^3. Mice were treated using oral gavage daily for 20 days followed by 3 days with no drugs to prevent severe weight loss. After the first cycle, treatment was continued on a schedule of 6 days on and 1 day off. Mouse weight and tumor volume were measured three times every week. Tumor volume was estimated using the following formula: volume (mm^3) =length (mm)×width (mm)×0.5 width (mm), where length is the longest axis of the tumor. Mice were euthanized using CO2 when the tumor volume reached 2,000 mm^3. For the blood chemical test, mouse cardiac blood was collected by veterinarians in the Department of Veterinary Medicine and Surgery at MD Anderson after 16 days of treatment. Concentrations of alanine aminotransferase, aspartate aminotransferase, and blood urea nitrogen in Balb/c mice were referred to North American colonies of Charles River Balb/c mice.
# BR# 09 cells = experiment: BR# 09 orthotopic xenograft mouse model; type: in vivo, mice; details: for tumor growth: BR# 09 model, oral gavage daily, olaparib 40, AZD4547 8, talazoparib 0.25, PD173074 15 mg/kg per day; for talazoparib-induced FGFR phosphorylation in tumors: 3 days
# Experimental: as §2
# BR# 17 cells [4] = experiment: yH2AX foci immunofluorescence staining after MMS; type: cell-based; details: after MMS removal
# Experimental: FIGS. 2A-2C: Inhibition of FGFR3 decreases DNA damage repair. (FIG. 2A) SUM149-derived talazoparib-resistant (BR)# 17 cells were treated for 1 hour with methyl methanesulfonate (MMS), talazoparib (Tala), and PD173074 (PD) as indicated. After MMS removal, cells were cultured for the indicated time before immunofluorescence staining. Representative images of yH2AX (green) and DNA (blue) are shown. […] (FIG. 2B) For comet assay analysis, BR# 09 cells were incubated for another 3 hours after MMS removal. DNA damage was normalized to that of the talazoparib-treated group. Mean ±standard deviation is shown (n >100). (FIG. 2C) Combination index (CI) of talazoparib and PD173074 in BR cells, measured by colony formation assay. Analysis of variance was used for statistical comparisons.
# Immunofluorescence staining and confocal microscopy were performed as previously described (Chen, et al., 2019). Cells were treated with DMSO (solvent control), talazoparib (125 nM for BR# 09; 250 nM for BR# 17), PD173074 (10 μM), or the combination of talazoparib and PD173074 for the time indicated. […] In both immunostaining and the proximity ligation assay, images of the cells were captured and analyzed with an LSM 710 laser confocal microscope and Zeiss Zen software (Carl Zeiss) and foci counting was performed using BlobFinder (Allalou and Wahlby, 2020).
# [5] = test system: SUM149-derived talazoparib-resistant (BR) cells; experiment: Colony formation assay; type: cell-based; details: colony formation assays; BR cells vs SUM149 parental cells
# Experimental: SUM149 cells (600 cells/well), BR# 09 cells (800 cells/well), and BR# 17 cells (1,000 cells/well) were seeded into a 12-well plate 18 hours before treatments. Inhibitor-containing media was refreshed every 2 days. Cells were fixed using 4% paraformaldehyde after 10-14 days of treatment. Colonies were stained with 0.5% crystal violet before plates were imaged, and colony number was quantified using the Celigo imaging cytometer (Nexcelom Bioscience). Cell survival rate was calculated by normalizing the number of colonies in each well to that of the vehicle-treated well on the same culture plate.
# HCC1806-BR cells = experiment: MTT assay, survival of HCC1806-BR and HCC1806 parental cells; type: cell-based; details: 6 days of PARPi
# Experimental: FIGS. 7A-7B. Activation of FGFR3 in HCC1806-BR cells. […] HCC1806-BR cells were developed by treating HCC1806 cells with […] talazoparib continuously for 9 months. Survival of HCC1806-BR and HCC1806 parental cells in response to talazoparib, olaparib, and rucaparib was measured by exposing cells to various concentrations of the indicated PARPi for 6 days before performing the MTT assay. (FIG. 7B) Antibody arrays of receptor tyrosine kinase activation in HCC1806 parental cells and HCC1806-BR cells. Cells were treated with either dimethyl sulfoxide (DMSO) or talazoparib overnight before being harvested for RTK antibody array analysis. PBS, phosphate-buffered saline.
# as §1
# FGFR3 = target: T1, FGFR3 (Homo sapiens, UniProt P22607); experiment: Western blot of FGFR phosphorylation in cells treated with MMS and talazoparib; type: cell-based; details: BR# 09 and BR# 17 cells; 5 μM FGFRi
# T1 construct: endogenous in cells; host or cells: SUM149 parental cells and SUM149-derived talazoparib-resistant BR cells (BR#09, BR#17)
# T1 sequence (P22607 23-806): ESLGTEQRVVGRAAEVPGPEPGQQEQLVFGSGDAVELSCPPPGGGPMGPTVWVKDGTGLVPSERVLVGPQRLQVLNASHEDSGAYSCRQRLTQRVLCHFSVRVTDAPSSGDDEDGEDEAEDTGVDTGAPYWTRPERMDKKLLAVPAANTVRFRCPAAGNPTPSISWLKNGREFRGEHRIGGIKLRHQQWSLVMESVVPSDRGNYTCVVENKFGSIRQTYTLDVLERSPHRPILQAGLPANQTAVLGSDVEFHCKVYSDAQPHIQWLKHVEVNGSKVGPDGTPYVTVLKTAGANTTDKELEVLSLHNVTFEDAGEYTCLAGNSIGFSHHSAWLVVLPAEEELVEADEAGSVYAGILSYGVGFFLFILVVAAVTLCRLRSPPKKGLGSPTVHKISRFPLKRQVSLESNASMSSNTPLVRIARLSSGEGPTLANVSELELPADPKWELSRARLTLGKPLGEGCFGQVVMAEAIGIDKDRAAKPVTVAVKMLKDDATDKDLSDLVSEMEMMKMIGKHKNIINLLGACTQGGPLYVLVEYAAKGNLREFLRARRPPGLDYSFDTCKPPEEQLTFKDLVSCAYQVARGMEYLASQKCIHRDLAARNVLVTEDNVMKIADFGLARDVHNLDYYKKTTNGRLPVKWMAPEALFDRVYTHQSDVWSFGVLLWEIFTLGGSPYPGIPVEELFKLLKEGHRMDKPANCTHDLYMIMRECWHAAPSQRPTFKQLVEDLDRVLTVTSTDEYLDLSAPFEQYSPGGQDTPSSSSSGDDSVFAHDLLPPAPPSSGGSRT
# Experimental: (FIG. 8B) BR# 17 cells were treated with 250 nM talazoparib and 0.01% MMS and FGFRi for 1 hour before being fixed and subjected to immunofluorescence staining with antibodies against FGFR3 (TexasRed, red) and yH2AX (FITC, green).
# PARP1 = target: T2, PARP1 (Homo sapiens, UniProt P09874); experiment: PARP trapping assay (chromatin-bound PARP1); type: cell-based; details: BR cells, 10 μM PD173074, 100 nM talazoparib, MMS
# T2 construct: endogenous in cells; host or cells: SUM149-derived talazoparib-resistant (BR) cells
# T2 sequence (P09874 whole entry): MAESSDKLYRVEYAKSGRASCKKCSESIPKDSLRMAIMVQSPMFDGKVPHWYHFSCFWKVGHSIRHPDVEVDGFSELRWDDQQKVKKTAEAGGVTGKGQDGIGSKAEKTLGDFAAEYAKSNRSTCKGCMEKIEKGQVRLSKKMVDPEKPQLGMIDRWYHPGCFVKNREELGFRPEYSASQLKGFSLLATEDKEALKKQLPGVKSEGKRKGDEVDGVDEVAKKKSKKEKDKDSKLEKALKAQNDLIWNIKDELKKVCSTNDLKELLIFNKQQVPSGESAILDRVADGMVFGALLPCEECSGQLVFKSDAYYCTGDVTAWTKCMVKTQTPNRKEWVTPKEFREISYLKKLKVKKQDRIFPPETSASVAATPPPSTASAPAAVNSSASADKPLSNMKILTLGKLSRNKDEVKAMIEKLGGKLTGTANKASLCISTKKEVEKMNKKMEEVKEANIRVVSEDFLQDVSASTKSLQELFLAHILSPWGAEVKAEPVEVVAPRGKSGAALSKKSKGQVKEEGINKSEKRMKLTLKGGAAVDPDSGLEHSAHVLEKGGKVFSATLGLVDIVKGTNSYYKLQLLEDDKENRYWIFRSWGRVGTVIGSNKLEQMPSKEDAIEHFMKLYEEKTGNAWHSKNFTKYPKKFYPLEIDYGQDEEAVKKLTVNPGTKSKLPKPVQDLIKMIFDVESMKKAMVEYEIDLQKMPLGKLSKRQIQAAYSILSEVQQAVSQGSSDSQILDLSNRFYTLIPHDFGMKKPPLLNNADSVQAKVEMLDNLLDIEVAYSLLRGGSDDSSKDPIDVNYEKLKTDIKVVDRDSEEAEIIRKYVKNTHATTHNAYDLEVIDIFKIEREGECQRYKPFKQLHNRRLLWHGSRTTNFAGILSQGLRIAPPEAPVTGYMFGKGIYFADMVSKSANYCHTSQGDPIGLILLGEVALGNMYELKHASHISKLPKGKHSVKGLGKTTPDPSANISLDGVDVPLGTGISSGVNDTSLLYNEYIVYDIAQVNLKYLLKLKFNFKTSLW
# p-Y158 PARP1 = experiment: Western blot of Y158-phosphorylated PARP1 in BR cells; type: cell-based
# Description: FIGS. 3A-3E: FGFR3 mediates PARP inhibitor resistance by phosphorylating PARP1 at Y158 residue. (FIG. 3A) Proximity ligation assay (PLA) signals of FGFR3 and PARP1 (red), phalloidin (green), and DNA (blue) were merged in representative images of the treatment indicated (MMS, methyl methanesulfonate; Tala, talazoparib; PD, PD173074; BR, SUM149-derived talazoparib-resistant cells). Mean ±95% confidence interval PLA signals in each cell nucleus are shown in the histograms (n >100). *p <0.05; ***p <0.001; n.s., not significant. (FIG. 3B) Cell survival of BR cells with PARP1 knockdown expressing hemagglutinin-tagged vector control (Neo), wild-type PARP1 (WT), or PARP1^Y158F (Y158F) mutant in response to talazoparib, measured by MTT assay (mean ±standard deviation; n >3). (FIG. 3C) BR# 17 cells were treated with MMS, talazoparib, and PD173074 as indicated for Western blot analysis. (FIG. 3D) Combination index (CI) of talazoparib and PD173074 in BR# 17 cells expressing PARP1^WT or PARP1^Y158F measured by MTT assay. (FIG. 3E) Cells were harvested at different time points after 40 minutes of treatment with talazoparib and MMS. […]
# The precipitated protein complex was then washed and subjected to Western blot analysis performed as described previously (Chen, et al., 2019). Signals were detected using the ImageQuant 4000 system (GE Healthcare) and quantified using Image Studio Lite.
# Chain of His-tagged PARP1 recombinant protein (P09874 whole entry, looked up): as the sequence (P09874 whole entry) above
Compound,tumor growth (BR# 17 cells [3]),tumor growth (BR# 09 cells),resistance of HCC1806-BR cells compared with HCC1806 parental cells (HCC1806-BR cells),cross-resistance of BR cells to PARPi [2],further results
activated FGFR kinase domain,–,–,–,–,tyrosine phosphorylation in in vitro kinase assay (Western blot with anti-phospho-tyrosine antibodies; mass spectrum analysis) [1]: FGFR can phosphorylate PARP1 at tyrosine (Y)158 and Y176 amino acids
Cn1ncnc1[C@H]1c2n[nH]c(=O)c3cc(F)cc(c23)N[C@@H]1c1ccc(F)cc1 [talazoparib],did not inhibit tumor growth,did not inhibit tumor growth,more resistant,–,"half-maximal inhibitory concentration in BR cells relative to parental cells ([2]; MTT assays, BR cells vs SUM149 parental cells): more than 100 fold; increase in resistance to talazoparib on PARP1 knockdown ([2]; SUM149, BR# 09 and BR# 17 cells with shPARP1 vs non-targeting shRNA control): ≥ 10 fold; FGFR3 phosphorylation in tumors (BR# 09 cells; tumors harvested after 3 days of treatment, talazoparib alone): induced; yH2AX foci at 8 hours compared with 4 hours (BR# 17 cells [4]): significantly decreased; half-maximal inhibitory concentration in BR cells relative to parental cells [5]: more than 100 fold"
C[C@]1(c2nc3c(C(N)=O)cccc3[nH]2)CCCN1 [veliparib],–,–,–,cross-resistance,–
O=C(c1cc(Cc2n[nH]c(=O)c3ccccc23)ccc1F)N1CCN(C(=O)C2CC2)CC1 [olaparib],did not inhibit tumor growth,did not inhibit tumor growth,more resistant,cross-resistance,–
AZD4547,inhibited tumor growth,not,–,–,–
CNCc1ccc(-c2[nH]c3cc(F)cc4c3c2CCNC4=O)cc1 [rucaparib],–,–,more resistant,cross-resistance,–
CCN(CC)CCCCNc1ncc2cc(-c3cc(OC)cc(OC)c3)c(NC(=O)NC(C)(C)C)nc2n1 [PD173074],did not inhibit tumor growth,did not inhibit tumor growth,–,–,"FGFR phosphorylation in response to MMS and talazoparib (FGFR3): inhibited; body weight (BR# 09 cells; BR xenograft mouse models, PD173074 15 mg/kg per day, alone or with talazoparib 0.25 mg/kg per day, long-term treatment): no loss of body weight; talazoparib-induced FGFR phosphorylation in tumors (BR# 09 cells; PD173074 10 mg/kg per day): inhibited; talazoparib-induced FGFR phosphorylation in tumors (BR# 09 cells; PD173074 20 mg/kg per day): less than the basal levels; talazoparib-induced PARP1 trapping (PARP1): prolong; p-Y158 PARP1 level (p-Y158 PARP1): diminished; yH2AX foci at 8 hours compared with 4 hours (BR# 17 cells [4]): significantly decreased"
